{"source": "patent US20060211573A1", "about": "“7-(Akenylamino)triazolopyrimidines, method for the production thereof and use thereof in controlling harmful fungi and substances containing said triazolopyrimidines” (priority 2003, published 2006)", "system": "Alternaria solani", "test": "Activity against early blight of tomato caused by Alternaria solani (protective spray on tomato leaves)", "format": "in vivo", "details": "250 ppm active compound, sprayed one day before infection, assessed after 5 days; untreated plants 100% infected", "method": "The active compounds were prepared, separately or together, as a stock solution with 0.25% by weight of active compound in acetone or DMSO. 1% by weight of the emulsi-fier Uniperol® EL (wetting agent with an emulsifying and dispersing action based on ethoxylated alkylphenols) was added to this solution and appropriately diluted with water to the desired concentration. Leaves of pot plants of the variety “Grope Fleischtomate St. Pierre” were sprayed to runoff point with an aqueous suspension in the active compound concentration given below. On the following day, the leaves were infected with an aqueous suspension of spores of Alternaria solani in 2% Biomalz solution with a concentration of 0.17×10^6 spores/ml. The plants were subsequently placed in a chamber saturated with water vapor at temperatures between 20 and 22° C. After 5 days, leaf infection in the untreated but infected control plants had so extensively developed that the infection could be visually determined in %.", "data": [{"smiles": "C=CC(C)Nc1c(-c2c(F)cc(F)cc2F)c(Cl)nc2ncnn12", "note": "(stereo not shown) [I-1, 5-chloro-6-(2,4,6-trifluorophenyl)-7-(1-methyl-2-propen-1-yl)amino[1,2,4]triazolo[1,5-a]pyrimidine]", "values": [{"measurement": "leaf infection, visually determined in %", "result": "no infection"}]}]}
